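A five-concentration, 48-hour dose response in 96-well plates underlies each endpoint, interpolated linearly between surrounding concentrations. GI50 = concentration required for 50% inhibition of growth. TGI is the concentration that stops growth completely.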
Columns and labels:
Experiment in all cases: NCI anticancer screen, dose series, 48 h
K-562 leukemia = system: K-562 leukemia
HOP-92 NSCLC = system: HOP-92 NSCLC
EKVX NSCLC = system: EKVX NSCLC
UACC-62 melanoma = system: UACC-62 melanoma
NCI-H522 lung = system: NCI-H522 lung
HT29 colon = system: HT29 colon
OVCAR-5 ovarian = system: OVCAR-5 ovarian
HL-60(TB) leukemia = system: HL-60(TB) leukemia
HS 578T breast = system: HS 578T breast
MCF7 breast = system: MCF7 breast

Row | SMILES | GI50 (K-562 leukemia) [µM] | TGI (K-562 leukemia) [µM] | GI50 (HOP-92 NSCLC) [µM] | TGI (HOP-92 NSCLC) [µM] | GI50 (EKVX NSCLC) [µM] | TGI (EKVX NSCLC) [µM] | GI50 (UACC-62 melanoma) [µM] | TGI (UACC-62 melanoma) [µM] | GI50 (NCI-H522 lung) [µM] | TGI (NCI-H522 lung) [µM] | GI50 (HT29 colon) [µM] | TGI (HT29 colon) [µM] | GI50 (OVCAR-5 ovarian) [µM] | TGI (OVCAR-5 ovarian) [µM] | GI50 (HL-60(TB) leukemia) [µM] | TGI (HL-60(TB) leukemia) [µM] | TGI (HS 578T breast) [µM] | GI50 (MCF7 breast) [µM] | TGI (MCF7 breast) [µM] | GI50 (HS 578T breast) [µM]
1 | NC(=NC1CCCCCC1)c1ccc(N2CCN(c3ccc(C(N)=NC4CCCCCC4)cc3)CC2)cc1 | 4.57 | > 50 | 8.29 | 28.7 | 1.44 | 23 | 7.8 | 17.2 | 5.42 | 23.9 | 9.3 | > 50 | 25.4 | > 50 | 14.1 | > 50 | – | – | – | –
2 | Cc1c(C(=O)CC(=O)C(=O)Nc2cccc(C(F)(F)F)c2)[n+](=O)c2ccccc2n1[O-] | – | 14.1 | – | 38.9 | – | 20.3 | – | 7.55 | – | 5.5 | – | 17.8 | – | 19.5 | – | 7.65 | – | – | – | –
3 | COC1CC(OS(=O)(=O)c2ccc(C)cc2)C(OS(=O)(=O)c2ccc(C)cc2)C(COS(=O)(=O)c2ccc(C)cc2)O1 (configuration not stated) | – | > 100 | – | – | – | 24.4 | – | 18.6 | – | 16 | – | 15.1 | – | 51.5 | – | > 100 | – | – | – | –
4 | CC[O-].CC[O-].O=Nc1ccc2cc([O-])ccc2c1.O=Nc1ccc2cc([O-])ccc2c1.[Ti+4] | 2.85 | > 100 | 1.96 | 6.1 | 3.77 | 11.8 | 2.44 | – | – | – | – | – | 2.36 | 3.84 | 1.2 | 3.71 | – | – | – | –
5 | CC(C)(C)C(=O)C(c1ccc(-c2cscn2)cc1)c1ccc(-c2cscn2)cc1 | – | > 100 | – | 30 | – | > 100 | – | > 71.4 | – | > 100 | – | > 100 | – | > 100 | – | > 100 | – | – | – | –
6 | CC1OC(OC2C(Oc3cc(O)c4c(=O)cc(-c5ccc(O)cc5)oc4c3)OC(CO)C(O)C2O)C(O)C(O)C1O (configuration not stated) | – | > 100 | – | > 100 | – | > 100 | – | > 100 | – | > 100 | – | > 100 | – | > 100 | – | > 100 | – | – | – | –
7 | CCOC(=O)NC(=O)c1cn(CCCOC(=O)CCCCCCCCC(=O)OCCCn2cc(C(=O)NC(=O)OCC)c(=O)[nH]c2=O)c(=O)[nH]c1=O | – | 49.8 | – | – | – | > 100 | – | 69.1 | – | – | – | > 100 | – | – | – | 26.4 | – | – | – | –
8 | O[C@]12CCCC[C@H]1CCC2 | – | > 100 | – | > 100 | – | > 100 | – | > 100 | – | > 100 | – | > 100 | – | > 100 | – | > 100 | – | – | – | –
9 | CN(C)CCCn1c2c3ccccc3ccc2c2oc(=O)c3ccccc3c21 | – | – | – | 45.7 | – | 60.7 | – | 20.3 | – | 10.6 | – | 14.7 | – | 55.5 | – | 93.9 | > 65.6 | – | – | –
10 | Cc1ccc(C2=Nc3ccccc3NC(=O)C2)cc1 | – | > 100 | – | > 100 | – | > 100 | – | > 100 | – | > 100 | – | > 100 | – | > 100 | – | > 100 | – | – | – | –
11 | COc1cc2c(cc1OC)[C@@H](C(O)c1ccccc1)NCC2 (some centres not stated) | – | > 100 | – | > 100 | – | > 100 | – | > 100 | – | > 100 | – | > 100 | – | > 100 | – | > 100 | – | – | – | –
12 | O=Cc1[nH]c2ccccc2c1Br | – | 47.4 | – | 66.8 | – | > 100 | – | 33.7 | – | > 100 | – | 58.6 | – | > 100 | – | 51.8 | – | – | – | –
13 | CCCCC(=O)[O-].N.N.N.N.N.[Co+3].[O-][Cl+3]([O-])([O-])[O-] | > 100 | > 100 | > 100 | > 100 | > 100 | > 100 | > 100 | > 100 | > 100 | > 100 | > 100 | > 100 | > 100 | > 100 | – | – | – | – | – | –
14 | O=C(O)c1ccc(NS(=O)(=O)c2cccc3cccnc23)cc1 | > 100 | > 100 | – | – | – | – | > 100 | > 100 | > 100 | > 100 | > 100 | > 100 | > 100 | > 100 | – | – | > 100 | > 100 | > 100 | > 100
15 | O=C(N/N=C/c1cc(Br)cc(Br)c1[O-])c1ccccc1O.O=C(N/N=C/c1cc(Br)cc(Br)c1[O-])c1ccccc1O.[Mn+2] | 1.66 | 12.1 | – | 14.9 | – | 34.6 | – | 17.2 | – | – | – | 22.3 | – | 16.4 | – | 2.81 | – | – | – | –
16 | COC1=C(C(=O)OC(C)(C)C)[C@]2(C)C(C(=O)OC(C)(C)C)C(OC)=C(C(=O)OC(C)(C)C)[C@]2(C)C1C(=O)OC(C)(C)C (some centres not stated) | – | > 100 | – | > 100 | – | > 100 | – | > 100 | – | > 100 | – | > 100 | – | > 100 | – | > 100 | – | – | – | –

From PubChem BioAssay (NCI)
